Assay [1] has as its system DOPAC (3,4-dihydroxyphenylacetic acid) in the rat striatum. Briefly: Increase of DOPAC (3,4-dihydroxyphenylacetic acid) in the rat striatum after systemic administration. It is filed as in vivo. The following applies: sc, estimated ED50 on increase of DOPAC in rat striatum, dose range 0-100 μmol/kg s.c., curve fitting. From the text:
The increased turnover of dopamine in the terminal areas of the ascending dopaminergic projections of the mammalian brain can be illustrated by measuring of changes in biochemical indices in the brain with the characteristic features of dopamine antagonists, e.g. producing increases in concentrations of dopamine metabolites such as 3,4-dihydroxyphenyl-acetic acid (DOPAC) in the striatum.
After the behavioural activity sessions, the rats are decapitated and their brains rapidly taken out and put on an ice-cold petri-dish. The limbic forebrain, the striatum, the frontal cortex and the remaining hemispheral parts of each rat are dissected and frozen. Each brain part is subsequently analyzed with respect to its content of monoamines and their metabolites.
The monoamine transmitter substances (NA (noradrenaline), DA (dopamine), 5-HT (serotonin)) as well as their amine (NM (normethanephrine), 3-MT (3-methoxytyramine)) and acid (DOPAC (3,4-dihydroxyphenylacetic acid), 5-HIAA (5-hydroxyindoleacetic acid), HVA (homovanillic acid)) metabolites are quantified in brain tissue homogenates by HPLC separations and electrochemical detection
The analytical method is based on two chromatographic separations dedicated for amines or acids. Two chromatographic systems share a common auto injector with a 10-port valve and two sample loops for simultaneous injection on the two systems. Both systems are equipped with a reverse phase column (Luna C18(2), dp 3 μm, 50×2 mm i.d., Phenomenex) and electrochemical detection is accomplished at two potentials on glassy carbon electrodes (MF-1000, Bioanalytical Systems, Inc.). The column effluent is passed via a T-connection to the detection cell or to a waste outlet. This is accomplished by two solenoid valves, which block either the waste or detector outlet. By preventing the chromatographic front from reaching the detector, better detection conditions are achieved. The aqueous mobile phase (0.4 ml/min) for the acid system contains citric acid 14 mM, sodium citrate 10 mM, MeOH 15% (v/v) and EDTA 0.1 mM. Detection potentials relative to Ag/AgCl reference are 0.45 and 0.60V. […] Detection potentials relative to Ag/AgCl reference are 0.45 and 0.65V.
ED50 value for the increase of DOPAC in striatum is calculated by curve fitting. The evaluation is based on 40 animals over the dose range 0, 3.7, 11, 33 and 100 μmol/kg s.c. in two combined experiments. The DOPAC levels are normalised to control and fitted by least square minimization to the function “End-(End-Control)/(1+(dose/ED50)^slope)”. The four parameters (Control, End, ED50 and Slope) are fitted with the restrictions: ED50>0, 0.5<Slope<3, 350<End<400% of control. To estimate confidence levels for the parameters, the fit is repeated 100 times with a random evenly distributed squared weight (0 to 1) for every measurement value. Presented ED50-ranges cover 95% of these values.

In assay [2] the test system is MK-801 pre-treated rats. Briefly: Reduction of MK-801-induced hyper-locomotion. Type of assay: in vivo. The following applies: Rattus norvegicus; MK-801 0.7 mg/kg i.p. 90 minutes before test compound; locomotor activity between 45 and 60 minutes after administration; 0-100 μmol/kg s.c. From the text: Reduction of MK-801-Induced Hyper-Locomotion Another animal model of antipsychotic activity is based on administration of the glutamate antagonist MK-801. Glutamate antagonists (i.e. NMDA antagonists), can induce psychoses in man (see Psychopharmacology, 4th Generation of progress Chapter 101, p. 1205 and 1207) and induce behavioural aberrations in animals. Thus, the ability of a drug to affect schizophrenia and psychotic states can be measured using behavioural models based on experimentally-induced hypoglutamatergic states. In this study the NMDA antagonist MK-801 (0.7 mg/kg i.p.) was used to create a hypoglutamatergic state where the rats display abnormal, hyperactive behaviour.
Behavioural activity is measured using eight Digiscan activity monitors (RXYZM (16) TAO, Omnitech Electronics, Columbus, Ohio, USA), connected to an Omnitech Digiscan analyzer and an Apple Macintosh computer equipped with a digital interface board (NB DIO-24, National Instruments, USA). […]
Behavioural data from each activity monitor, representing the position (horizontal center of gravity and vertical activity) of the animal at each time, are recorded at a sampling frequency of 25 Hz and collected using a custom written LABView™ application. The data from each recording session are stored and analyzed with respect to distance traveled. […]

For assay [3], the system named is drug-naive rats. Briefly: Effects on spontaneous locomotion (locomotor activity in drug-naive rats). Type of assay: in vivo, rat. The following applies: recorded for 60 minutes immediately after drug administration. As to the method:
Prior art dopamine receptor antagonists are known to induce profound decrease in locomotor activity (catalepsy).
Behavioural activity is measured using eight Digiscan activity monitors (RXYZM (16) TAO, Omnitech Electronics, Columbus, Ohio, USA), connected to an Omnitech Digiscan analyzer and an Apple Macintosh computer equipped with a digital interface board (NB DIO-24, National Instruments, USA). Each activity monitor consists of a quadratic metal frame (W×L=40 cm×40 cm) equipped with photobeam sensors. During measurements of behavioural activity, a rat is put in a transparent acrylic cage (WxLxH, 40×40×30 cm) which in turn is placed in the activity monitor. Each activity monitor is equipped with three rows of infrared photobeam sensors, each row consisting of 16 sensors. Two rows are placed along the front and the side of the floor of the cage, at a 90° angle, and the third row is placed 10 cm above the floor to measure vertical activity. Photobeam sensors are spaced 2.5 cm apart. Each activity monitor is fitted in an identical sound and light attenuating box containing a weak house light and a fan.
The computer software is written using object oriented programming (LabVIEW®, National instruments, Austin, Tex., USA).
Behavioural data from each activity monitor, representing the position (horizontal center of gravity and vertical activity) of the animal at each time, are recorded at a sampling frequency of 25 Hz and collected using a custom written LABView™ application. The data from each recording session are stored and analyzed with respect to distance traveled. Each behavioural recording session lasts 60 min, starting approximately 4 min after the injection of test compound. Similar behavioural recording procedures are applied for drug-naïve and drug pre-treated rats. Rats pre-treated with d-amphetamine are given a dose of 1.5 mg/kg i.p. 10 min before the recording session in the activity monitor. Rats pre-treated with MK-801 are given a dose of 0.7 mg/kg i.p. 90 min before the recording session in the activity monitor. The results are presented as counts/60 minutes, or counts/30 minutes, in arbitrary length units. Statistical comparisons are carried out using Student's t-test against the control group. In MK-801 or amphetamine pre-treated animals, statistical comparisons are made against the MK801 or d-amphetamine controls, respectively.

Molecules are shown by their SMILES.

For `CS(=O)(=O)c1cc(F)cc(OCCNC2CCC2)c1` [Example 8, N-[2-(3-fluoro-5-methylsulfonyl-phenoxy)ethyl]cyclobutanamine], the results for the ED50 in assay [1] and in assay [2] were 36 µmol/kg and 40 µmol/kg, respectively. Besides, the Locomotor activity in assay [3] (3.7 μmol/kg) came out at 10319 counts/60 min; in assay [3] (11 μmol/kg) it was 12888 counts/60 min; in assay [3] (33 μmol/kg), 12872 counts/60 min.
